In article PMC11378297, “Discovery and Profiling of New Multimodal Phenylglycinamide Derivatives as Potent Antiseizure and Antinociceptive Drug Candidates” (ACS Chemical Neuroscience, 2024):

Experiments:
[1] = system: maximal electroshock (MES) seizures, mice; test: maximal electroshock (MES) seizure test; assay type: in vivo; settings: Mus musculus, ip; for responders at 100 mg/kg: 0.5 h, read-out: MES: number of mice protected/number of mice tested; for ED50: mice, pretreatment time 0.5 h
Description: (§2) Both the aforementioned parameters (ED50 and TD50) enabled the calculation of protective indexes (PIs), which reflect the comparative the benefit–risk ratio of these experimental therapeutic agents.
(§3) Four mice per group were randomly assigned to each experimental group in the initial screening experiments (each mouse was used just once). Four groups, each with eight animals, received injections of different doses of the investigated substances in order to determine the ED50 or TD50 values. The PIs for the compounds investigated and reference ASMs were calculated by dividing the TD50 value, as determined in the chimney test by the respective ED50 value, as determined in the MES, scPTZ, or 6 Hz (32 mA or 44 mA) tests (PI = TD50/ED50). The PIs are a measure of the potential therapeutic window of the tested agent.
(§4) All substances were suspended in Tween 80 (1% aqueous solution) and administered i.p. as a single injection at a volume of 10 mL/kg. On each day of experimentation, fresh solutions were prepared.

[2] = system: neuromuscular strength, mice; test: grip strength test; assay type: in vivo, mouse
Description: Prior to the ivPTZ test, a grip strength test was conducted to evaluate the tested eutomers’ acute impact on neuromuscular strength.
(§1) 30 min prior to the testing, eutomers (R)-31, (R)-32, and (R)-33 were given i.p. after being suspended in a 1% Tween 80 solution. To reduce the number of animals utilized, neuromuscular strength measurements were made right before the seizure threshold test. The grip-strength test and the timed ivPTZ test experimental protocols were covered in full elsewhere.[87]
Figure S3. Effects of (R)-31, (R)-32, and (R)-33 on neuromuscular strength in mice. The compounds were administered i.p., 30 min before the test. Control animals received vehicle. Data are presented as mean ± SD grip strengths in millinewtons per gram of mouse body weight (mN/g); n = 10 animals. The statistical significance was evaluated using the Student’s t test (GraphPad Prism 8). […]

[3] = target: T1, CYP2D6 (Homo sapiens, UniProt P10635); test: CYP2D6 P450-Glo assay; assay type: in vitro ADME
T1 construct: purchased Promega (Madison, WI, USA)
T1 sequence (P10635 whole entry): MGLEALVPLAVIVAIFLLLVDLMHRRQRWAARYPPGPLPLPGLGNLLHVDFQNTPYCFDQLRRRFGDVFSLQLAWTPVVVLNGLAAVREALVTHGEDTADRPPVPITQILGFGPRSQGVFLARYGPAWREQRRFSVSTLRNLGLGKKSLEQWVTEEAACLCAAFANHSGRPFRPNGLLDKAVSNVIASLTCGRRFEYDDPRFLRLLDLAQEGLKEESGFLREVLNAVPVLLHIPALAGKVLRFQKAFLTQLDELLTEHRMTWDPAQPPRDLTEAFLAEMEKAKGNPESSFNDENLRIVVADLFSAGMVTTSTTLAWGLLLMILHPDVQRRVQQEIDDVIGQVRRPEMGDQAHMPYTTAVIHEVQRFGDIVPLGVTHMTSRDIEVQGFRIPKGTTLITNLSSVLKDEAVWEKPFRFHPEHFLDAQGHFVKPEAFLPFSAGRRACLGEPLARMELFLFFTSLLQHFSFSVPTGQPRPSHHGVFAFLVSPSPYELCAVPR
Description: The inhibition effect of enantiomers on CYP2C9 was also determined, but only at the highest concentrations (Figure 10C). In summary, the potential for DDIs of the tested enantiomers in comparison to the reference CYP inhibitors was estimated as very low.
Figure 10 Influence of (R)-31, (R)-32, and (R)-33 on: CYP3A4 activity (A) and the reference inhibitor ketoconazole (KE), CYP2D6 activity (B) and the reference inhibitor quinidine (QD), CYP2C9 activity (C) and the reference inhibitor sulfaphenazole (SE). The results are presented as means + SD. Statistical significance was evaluated by one-way ANOVA, followed by Bonferroni’s multiple comparison post hoc test (Graph Pad Prism 8.0.1 software) *p < 0.05, **p < 0.01, ***p < 0.001, ****p < 0.0001.
All assays and protocols used for the evaluation of compounds ADME-Tox parameters were described previously.[35]−[38],[95]−[98] The precoated PAMPA Plate System Gentest was utilized to estimate passive permeability (Tewksbury, MA, USA). HLMs, obtained from Sigma-Aldrich (St. Louis, MO, USA), were used for the metabolic stability assay. The most likely sites of metabolism could be identified, thanks to the MetaSite 6.0.1 program from Molecular Discovery Ltd. (Hertfordshire, UK), which was used to support the microsome experiments. The impact on recombinant human cytochromes CYP3A4, CYP2D6, and CYP2C9 was examined using CYP3A4, CYP2D6, and CYP2C9 P450-Glo kits supplied by Promega (Madison, WI, USA) in order to anticipate possible DDIs. […] The vitality of the cells was assessed using the CellTiter 96 AQueous Non-Radioactive Cell Proliferation Assay (Promega, Madison, WI, USA), following a 48 h incubation period with either the reference medication, doxorubicin (DOX), or serial dilutions of the investigated compounds. Using an EnSpire PerkinElmer microplate reader (Waltham, MA, USA), the luminescent signal and absorbances (measured at 490 nm) in DDIs and safety assays were determined. […]

[4] = system: 6 Hz (32 mA) seizures, mice; test: 6 Hz (32 mA) psychomotor seizure test; assay type: in vivo; settings: Mus musculus, ip, mice; for responders at 100 mg/kg: 100 mg/kg i.p., 0.5 h, read-out: 6 Hz (32 mA): number of mice protected/number of mice tested (converted); for ED50: pretreatment time 0.5 h;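 as to all read-outs here: compounds given as one i.p. dose suspended in 1% aqueous Tween 80, with the 6 Hz (32 mA) model considered to reflect focal epilepsy in humans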
Description: as §2, §3, §4

[5] = system: ivPTZ seizure threshold, mice; test: timed ivPTZ seizure threshold test; assay type: in vivo, mouse; settings: for effect on the threshold for the onset of any of the studied end points (ivPTZ): 30 min before test
Description: The effects of (R)-31, (R)-32, and (R)-33 on the thresholds for the first myoclonic twitch, generalized clonus with loss of righting reflex, and forelimb tonus in the timed ivPTZ seizure test in mice were evaluated in the following step of pharmacological characterization. […] It should be noted that the ivPTZ seizure test is an extremely sensitive method for determining the seizure threshold in rodents.[47] In this model, (R)-31 at a dose of 50 mg/kg had no effect on the threshold for the onset of any of the studied end points. […] Compounds (R)-32 and (R)-33 were tested at a dose of 50 mg/kg only. […] (R)-33 was ineffective in the ivPTZ seizure threshold test.
Figure 2 Effect of eutomers (R)-31, (R)-32, and (R)-33 on the thresholds for the onset of (A) myoclonic twitch, (B) generalized clonus, and (C) forelimb tonic extension in the timed ivPTZ test in mice. (R)-31, (R)-32, and (R)-33 were administered, i.p., 30 min before the seizure test. Control animals received vehicle. Data are presented as means + SD in mg/kg of PTZ necessary to induce each of the three end points (n = 7–14 animals). Statistical significance was evaluated using Student’s t-test: **p < 0.01, ****p < 0.0001 vs the vehicle-treated group (GraphPad Prism 8.4.3).
as §1

[6] = target: T2, TRPV1 (VR1) (h) (Homo sapiens, UniProt Q8NER1); test: TRPV1 (VR1) (h) (antagonist effect); assay type: cell-based; settings: human recombinant CHO cells, antagonist effect; for Kb: read-out: KB (dissociation constant)
T2 construct: host or cells: CHO cells
T2 sequence (Q8NER1 whole entry): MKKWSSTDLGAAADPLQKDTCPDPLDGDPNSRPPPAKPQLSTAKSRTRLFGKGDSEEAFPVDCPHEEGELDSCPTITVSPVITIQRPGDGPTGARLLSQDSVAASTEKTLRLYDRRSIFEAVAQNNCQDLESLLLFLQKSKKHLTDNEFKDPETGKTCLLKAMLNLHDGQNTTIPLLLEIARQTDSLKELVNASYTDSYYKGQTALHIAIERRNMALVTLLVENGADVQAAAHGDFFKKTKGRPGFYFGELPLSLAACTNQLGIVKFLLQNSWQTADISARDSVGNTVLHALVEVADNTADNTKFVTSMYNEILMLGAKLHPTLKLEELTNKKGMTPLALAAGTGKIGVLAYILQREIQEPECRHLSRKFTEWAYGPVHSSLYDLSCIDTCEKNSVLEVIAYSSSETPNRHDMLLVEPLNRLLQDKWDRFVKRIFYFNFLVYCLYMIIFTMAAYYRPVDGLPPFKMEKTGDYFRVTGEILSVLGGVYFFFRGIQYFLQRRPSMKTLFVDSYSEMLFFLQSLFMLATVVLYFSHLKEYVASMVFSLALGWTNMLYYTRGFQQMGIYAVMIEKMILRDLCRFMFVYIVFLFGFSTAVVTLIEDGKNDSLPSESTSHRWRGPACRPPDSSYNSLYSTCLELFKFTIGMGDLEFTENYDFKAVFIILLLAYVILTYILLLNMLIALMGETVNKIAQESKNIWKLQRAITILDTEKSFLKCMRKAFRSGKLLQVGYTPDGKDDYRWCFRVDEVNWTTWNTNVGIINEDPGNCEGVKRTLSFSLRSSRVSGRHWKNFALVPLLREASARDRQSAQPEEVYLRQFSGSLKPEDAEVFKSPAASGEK
Description: Further in vitro functional studies confirmed TRPV1 antagonist activity for (R)-31–(R)-33.
Using previously described testing methodologies, binding/functional tests were conducted on a commercial basis at Eurofins Laboratories (Poitiers, France) and Eurofins Panlabs Discovery Services Taiwan, Ltd. (New Taipei City, Taiwan); see Table S9 for more information.
Table S9. Radioligand binding and functional assays. […]
TRPV1 (VR1) (h) (antagonist effect) […]
Assays were performed commercially in Eurofins Laboratories (Poitiers, France) or Eurofins Panlabs Discovery Services
Taiwan, Ltd. (New Taipei City, Taiwan).

[7] = metabolic stability in human liver microsomes (HLMs); assay type: in vitro ADME; settings: for remaining at 2 h: human, human liver microsomes, 120 min incubation, TRIS buffer pH 7.4, 37 °C; for metabolic pathway: metabolites M1–M3 (one cell per metabolite)
[8] = chimney test (motor coordination, TD50); settings: mouse, in vivo, ip, mice
Description: as §2, §3, §4

CC(=O)N[C@@H](C(=O)N1CCN(c2cccc(SC(F)(F)F)c2)CC1)c1ccccc1 [(R)-33, (R)-N-(2-Oxo-1-phenyl-2-(4-(3-((trifluoromethyl)thio)phenyl)piperazin-1-yl)ethyl)acetamide]
responders at 100 mg/kg [1]: 100% | ED50 [1]: 75.7 mg/kg | effect on neuromuscular strength (grip strength test) ([2]; 50 mg/kg i.p.): did not produce any significant effects | effect on CYP2D6 activity ([3]; 25 μM): slightly inhibited | responders at 100 mg/kg [4]: 100% | ED50 [4]: 23.9 mg/kg | effect on the threshold for the onset of any of the studied end points (ivPTZ) ([5]; 50 mg/kg i.p.): ineffective | IC50 [6]: 13000 nM | Kb [6]: 1600 nM | remaining at 2 h [7]: 70.3% | metabolic pathway ([7]; metabolite 436.21 (M2)): dehydrogenation | metabolic pathway ([7]; metabolite 454.08 (M3)): hydroxylation | TD50 at 0.5 h [8]: 146 mg/kg

CC(=O)N[C@@H](C(=O)N1CCN(c2cccc(OC(F)(F)F)c2)CC1)c1ccccc1 [(R)-32, (R)-N-(2-Oxo-1-phenyl-2-(4-(3-(trifluoromethoxy)phenyl)piperazin-1-yl)ethyl)acetamide]
responders at 100 mg/kg [1]: 100% | ED50 [1]: 73.9 mg/kg | effect on neuromuscular strength (grip strength test) ([2]; 50 mg/kg i.p.): did not produce any significant effects | effect on CYP2D6 activity ([3]; 1 and 10 μM): weak activation | responders at 100 mg/kg [4]: 100% | ED50 [4]: 18.8 mg/kg | threshold for the onset of forelimb tonus (ivPTZ) ([5]; 50 mg/kg i.p.): did not affect the threshold | threshold for the first myoclonic twitch (ivPTZ) ([5]; 50 mg/kg i.p., p < 0.0001): significantly increased the thresholds | threshold for generalized clonus (ivPTZ) ([5]; 50 mg/kg i.p., p < 0.01): significantly increased the thresholds | IC50 [6]: 11000 nM | Kb [6]: 1400 nM | remaining at 2 h [7]: 78.5% | metabolic pathway ([7]; metabolite 420.22 (M2)): dehydrogenation | metabolic pathway ([7]; metabolite 438.25 (M1)): hydroxylation | TD50 at 0.5 h [8]: 114 mg/kg

CC(=O)N[C@@H](C(=O)N1CCN(c2cccc(C(F)(F)F)c2)CC1)c1ccccc1 [(R)-31, (R)-N-(2-Oxo-1-phenyl-2-(4-(3-(trifluoromethyl)phenyl)piperazin-1-yl)ethyl)acetamide]
responders at 100 mg/kg [1]: 100% | ED50 [1]: 98.4 mg/kg | effect on neuromuscular strength (grip strength test) ([2]; 50 mg/kg i.p.): did not produce any significant effects | effect on neuromuscular strength (grip strength test) ([2]; 100 mg/kg i.p.): did not produce any significant effects | effect on CYP2D6 activity ([3]; 1 and 10 μM): weak activation | responders at 100 mg/kg [4]: 100% | ED50 [4]: 34.5 mg/kg | effect on the threshold for the onset of any of the studied end points (ivPTZ) ([5]; 50 mg/kg i.p.): had no effect | threshold for generalized clonic seizure (ivPTZ) ([5]; 100 mg/kg i.p., p < 0.01): significantly raised the threshold | IC50 [6]: 3500 nM | Kb [6]: 460 nM | remaining at 2 h [7]: 85.2% | metabolic pathway ([7]; metabolite 404.19 (M2)): dehydrogenation | metabolic pathway ([7]; metabolite 422.22 (M3)): hydroxylation | metabolic pathway ([7]; metabolite 454.01 (M1)): triple-hydroxylation | TD50 at 0.5 h [8]: 174 mg/kg
